# Source: US20230017661A1, “COMPOSITIONS AND MODULAR NANO- AND MICROPARTICLES FOR THE DELIVERY OF VARIOUS AGENTS AND USE THEREOF” (Veri Nano Inc., priority 2019, published 2023)
# Test: Encapsulation efficiency by 1H NMR analysis of nanoparticles
# Assay type: physicochemical
# Conditions: DMF internal standard, DMSO-d6, agent within the nanoparticle delivery system
# Protocol: For the ^1H NMR analysis, the nanoparticle suspension was centrifuged at 3214 rcf for 30 min. The supernatant was decanted. DMF was added to the precipitate as the internal reference for ^1H NMR analysis and weighed the amount added. DMSO-d6, was added and heated to 60° C. to dissolve the sample. The ^1H NMR was performed at 60° C.
row,encapsulation efficiency [%],SMILES
1,19,CCCCCCCC/C=C\CCCCCCCC(=O)O [oleic acid]
2,42.7,"CCC(=O)OC/C=C(C)/C=C/C=C(C)/C=C/C1=C(C)CCCC1(C)C [vitamin A-propionate, retinyl propionate]"
